Experiments:
[1] = system: THP1 macrophages; test: PGE2 and PGF2α secretion (ELISA); assay type: cell-based, human; conditions: coadministered along with UBM hydrogel
Procedure: (§1) THP-1 human monocytes were obtained from the American Tissue Culture Collection (ATCC, Manassas, VA) and maintained in RPMI, 10% FBS, 1% penicillin/streptomycin, 2 mM L-glutamine, and 1 mM sodium pyruvate in a humidified atmosphere at 37° C. with 5% CO2. For TNFα, PGE2, PGF2α, IL-1β, and IL-1RA experiments, 500,000 THP-1 cells/well were plated with 320 nM phorbol 12-myristate 13-acetate (PMA) for 24 hours to induce differentiation into macrophages. Adherent macrophages were washed in PBS and placed in fresh media, followed by a 24 hour incubation in fresh media to acquiesce. Human PSCs were isolated from blood vessels in fetal muscle according to the methods outlined by Crisan et al. [Purification and long-term culture of multipotent progenitor cells affiliated with the walls of human blood vessels: myoendothelial cells and pericytes. […]
(§2) Macrophages prepared as described in the Cell Culture section were treated with UBM digest (290 μg/mL) or fractionated components (80 μg/mL soluble, 170 μg/mL structural) for 48 (TNFα, IL-1β and IL-1RA), or 72 (PGE2 and PGF2α) hours. […] Commercially available ELISA kits were used to determine the absolute quantities of TNFα (BD Bioscience, San Jose, CA), PGE2 (Enzo, Farmingdale, NY), PGF2α (Enzo, Farmingdale, NY), IL-1β (BD Bioscience, San Jose, CA), and IL1-RA (R&D Systems, Minneapolis, MN) according to the manufacturer's instructions. […]

[2] = system: THP-1 macrophages; test: TNFα and IL-1β secretion after treatment (ELISA); assay type: cell-based, human; conditions: 48 hours treatment
Procedure: as §1, §2

## CS(=O)(=O)Nc1ccc([N+](=O)[O-])cc1OC1CCCCC1 [NS-398]
[1]
  PGE2 secretion on co-incubation with COX2 inhibitor: abrogated PGE2 secretion down to control levels

## lipopolysaccharide [LPS]
[2]
  production of TNFα and IL-1β above control: 100-1000 fold

From patent US20250065017A1, “Fractionating Extracellular Matrix to Modulate Bioactivity and the Host Response” (University of Pittsburgh - Of the Commonwealth System of …, priority 2014, published 2025)
